“And” between values parts separate entries of the source, which are not always exact repeats. Equal values may be shown once.
What was measured:
[1] = tested on: MG-63; experiment: MTT cytotoxicity, MG-63 (bone); assay type: cell-based, human; conditions: MTT test, 72 hrs
Text: (§1) The in vitro antitumor activity of CP had been deeply evaluated in several human cancer cell lines by in vitro cytotoxicity assays. CP cytotoxicity has been detected in a large panel of human cell lines derived from a wide variety of solid tumors, including refractory tumors. In Table 1, the cytotoxicity parameters IC50 (that is the median growth inhibitory concentrations calculated from dose-survival curves via MTT test) are tabulated.
(§2) Cell lines representative of lung (H157, U1810, U1285, Calu-1), pancreas (MIA PaCa-2, BxPC-3, AsPC-1, Capan-1), liver (Huh-7, Hep 3B, SK-Hep-1), oesophagus (OE33, OE21), oesophagus/gastric cardia (OE19), stomach (BGC-823, AGS), colon (HCT-116, T84, COLO 205), breast (MDA-MB-231, SK-BR-3), cervix (CaSki, C-33 A) ovarian (A2780, SK-OV-3, IGROV1), prostate (LnCaP, PC-3) cancers along with melanoma (MEWO, G361, C-32), neuroblastoma (SH-SY5Y, SK-N-AS, IMR-32) and osteosarcoma (U-2 OS, MG-63) have been treated with increasing concentration of CP for 72 hrs.

[2] = tested on: SK-Hep-1; experiment: MTT cytotoxicity, SK-Hep-1 (liver); assay type: cell-based, human; conditions: MTT test, 72 hrs
Text: as §1, §2

[3] = tested on: Lewis lung carcinoma (LLC); experiment: Advanced-stage treatment (1) of LLC-bearing mice; assay type: in vivo, C57BL mice; conditions: for Average tumor weight (mean ± S.D.) / Inhibition of tumor growth: advanced-stage (1); for Average tumor weight (mean ± S.D.): day 15; for Inhibition of tumor growth: day 15, referred to control; for adverse effects / body weight changes during therapy: advanced-stage treatments (1) and (2), FIGS. 2 and 3
Protocol: Body weight was measured at day 1 and every two days from day 7 and was taken as a parameter of systemic toxicity. The X axis indicates the days after transplantation whereas the Y axis indicates the percentage of body weight changes. […] The error bars indicate the SD.
(§3) The in vivo antitumor activity of CP in LLC tumor model has been further investigated by means of other protocols, such as advanced-stage treatment (1), and advanced-stage treatment (2). For upstaged or advanced stage disease, LLC tumors were allowed to establish and grow to visible (advanced-stage treatment 1) and palpable (advanced-stage treatment 2) size before the start of chemotherapy. The results shown in Table 8 and 9, attested that CP was efficacious even at the lowest dose schedules.

[4] = tested on: AsPC-1; experiment: MTT cytotoxicity, AsPC-1 (pancreas); assay type: cell-based, human; conditions: MTT test, 72 hrs
Text: as §1, §2

[5] = tested on: OE33; experiment: MTT cytotoxicity, OE33 (oesophagus); assay type: cell-based, human; conditions: MTT test, 72 hrs
Text: as §1, §2

[6] = tested on: OE19; experiment: MTT cytotoxicity, OE19 (oesophagus/gastric cardia); assay type: cell-based, human; conditions: MTT test, 72 hrs
Text: as §1, §2

[7] = tested on: SK-OV-3; experiment: MTT cytotoxicity, SK-OV-3 (ovary); assay type: cell-based, human; conditions: MTT test, 72 hrs
Text: as §1, §2

[8] = tested on: MEWO; experiment: MTT cytotoxicity, MEWO (skin); assay type: cell-based, human; conditions: MTT test, 72 hrs
Text: as §1, §2

[9] = tested on: HCT-116; experiment: MTT cytotoxicity, HCT-116 (colon); assay type: cell-based, human; conditions: MTT test, 72 hrs
Text: as §1, §2

[10] = tested on: LNCap; experiment: MTT cytotoxicity, LNCap (prostate); assay type: cell-based, human; conditions: MTT test, 72 hrs
Text: as §1, §2

[11] = tested on: MIA PaCa-2; experiment: MTT cytotoxicity, MIA PaCa-2 (pancreas); assay type: cell-based, human; conditions: MTT test, 72 hrs
Text: as §1, §2

[12] = tested on: COLO 205; experiment: MTT cytotoxicity, COLO 205 (colon); assay type: cell-based, human; conditions: MTT test, 72 hrs
Text: as §1, §2

[13] = tested on: OE21; experiment: MTT cytotoxicity, OE21 (oesophagus); assay type: cell-based, human; conditions: MTT test, 72 hrs
Text: as §1, §2

[14] = tested on: SH-SY5Y; experiment: MTT cytotoxicity, SH-SY5Y (brain); assay type: cell-based, human; conditions: MTT test, 72 hrs
[15] = tested on: SK-BR-3; experiment: MTT cytotoxicity, SK-BR-3 (breast); assay type: cell-based, human; conditions: MTT test, 72 hrs
Text: as §1, §2

[16] = tested on: human osteosarcoma cells sensitive (U-2 OS); experiment: Cross resistance MTT test, U-2 OS (CDDP sensitive); assay type: cell-based; conditions: 72 h, probit analysis
[17] = tested on: human ovarian adenocarcinoma cells resistant (A2780cisR) to CDDP; experiment: Cross resistance MTT test, A2780cisR (CDDP resistant); assay type: cell-based; conditions: for IC50: A2780cisR (CDDP resistant), MTT test, 72 h, probit analysis; for R.F. (Resistant factor): IC50 resistant/parent line: A2780cisR / A2780
[18] = tested on: MDA-MB-231; experiment: MTT cytotoxicity, MDA-MB-231 (breast); assay type: cell-based, human; conditions: MTT test, 72 hrs
Text: as §1, §2

[19] = tested on: T84; experiment: MTT cytotoxicity, T84 (colon); assay type: cell-based, human; conditions: MTT test, 72 hrs
Text: as §1, §2

[20] = tested on: Lewis lung carcinoma (LLC); experiment: Advanced-stage treatment (2) of LLC-bearing mice; assay type: in vivo, C57BL mice; conditions: advanced-stage (2); for Average tumor weight (mean ± S.D.): day 15; for Inhibition of tumor growth: day 15, referred to control
Protocol: Body weight was measured at day 1 and every two days from day 9 and was taken as a parameter of systemic toxicity. The X axis indicates the days after transplantation whereas the Y axis indicates the percentage of body weight changes. […] The error bars indicate the SD.
The complete disappearance of primary tumors in these mice was confirmed by dissection on day 15.
as §3

[21] = tested on: C-33 A; experiment: MTT cytotoxicity, C-33 A (cervix); assay type: cell-based, human; conditions: MTT test, 72 hrs
Text: as §1, §2

[22] = tested on: U1285; experiment: MTT cytotoxicity, U1285 (lung); assay type: cell-based, human; conditions: MTT test, 72 hrs
Text: as §1, §2

[23] = tested on: SK-N-AS; experiment: MTT cytotoxicity, SK-N-AS (brain); assay type: cell-based, human; conditions: MTT test, 72 hrs
[24] = tested on: BGC-823; experiment: MTT cytotoxicity, BGC-823 (stomach); assay type: cell-based, human; conditions: MTT test, 72 hrs
Text: as §1, §2

[25] = tested on: C57BL mice; experiment: Maximum Tolerated Dose in C57BL mice; conditions: single ip administration, <20% weight loss and no animal death
[26] = tested on: CaSki; experiment: MTT cytotoxicity, CaSki (cervix); assay type: cell-based, human; conditions: MTT test, 72 hrs
Text: as §1, §2

[27] = tested on: AGS; experiment: MTT cytotoxicity, AGS (stomach); assay type: cell-based, human; conditions: MTT test, 72 hrs
Text: as §1, §2

[28] = tested on: human lung (MRC-5) fibroblasts; experiment: Cytotoxicity towards human non-tumor cells, MRC-5; assay type: cell-based; conditions: MRC-5 human lung fibroblasts (non-tumor); MTT test, 72 hrs
[29] = tested on: IMR-32; experiment: MTT cytotoxicity, IMR-32 (brain); assay type: cell-based, human; conditions: MTT test, 72 hrs
[30] = tested on: Calu-1; experiment: MTT cytotoxicity, Calu-1 (lung); assay type: cell-based, human; conditions: MTT test, 72 hrs
Text: as §1, §2

[31] = tested on: human osteosarcoma cells resistant (U-2 OS/Pt) to CDDP; experiment: Cross resistance MTT test, U-2 OS Pt (CDDP resistant); assay type: cell-based; conditions: for IC50: U-2 OS Pt (CDDP resistant), MTT test, 72 h, probit analysis
[32] = tested on: human foreskin (HFFF2) fibroblasts; experiment: Cytotoxicity towards human non-tumor cells, HFFF2; assay type: cell-based; conditions: MTT test, 72 hrs
[33] = 1.5 mg/kg i.p. daily from day 7
[34] = 50 mg/kg ip days 9-11 then 30 mg/kg days 12-14

| Compound | IC50 [1] [µM] | IC50 [2] [µM] | adverse effects / body weight changes during therapy [3] | IC50 [4] [µM] | IC50 [5] [µM] | IC50 [6] [µM] | IC50 [7] [µM] | IC50 [8] [µM] | IC50 [9] [µM] | IC50 [10] [µM] | IC50 [11] [µM] | IC50 [12] [µM] | IC50 [13] [µM] | IC50 [14] [µM] | IC50 [15] [µM] | IC50 [16] [µM] | IC50 [17] [µM] | R.F. (Resistant factor) [17] | IC50 [18] [µM] | IC50 [19] [µM] | also measured |
| --- | --- | --- | --- | --- | --- | --- | --- | --- | --- | --- | --- | --- | --- | --- | --- | --- | --- | --- | --- | --- | --- |
| N.N.[Cl][Pt][Cl] [CDDP, cis-diamminodichloro platinum(II)] | 5.76 ± 1.01 | 27.1 ± 2.94 | substantial weight loss | 29.5 ± 1.57 | 6.87 ± 1.06 | 7.45 ± 1.37 | 3.04 ± 0.95 | 6.76 ± 1.47 | 8.26 ± 1.11 | 1.08 ± 1.01 | 25.9 ± 2.75 | 33.1 ± 2.68 | 3.76 ± 1.08 | 5.16 ± 1.23 | 5.12 ± 1.51 | 5.9 ± 1.4 | 13.1 ± 2.3 | 5.3 | 3.23 ± 1.56 | 7.67 ± 1.34 | Average tumor weight (mean ± S.D.) [3, 33]: 0.061 ± 0.03 g; Inhibition of tumor growth [3, 33]: 87.84%; Average tumor weight (mean ± S.D.) ([20]; 1.5 mg/kg ip daily from day 9): 0.118 ± 0.10 g; Inhibition of tumor growth ([20]; 1.5 mg/kg ip daily from day 9, 1.5 mg/kg): 72% and 72.68%; IC50 [21]: 7.42 ± 1.98 µM; IC50 [22]: 4.37 ± 1.06 µM; IC50 [23]: 18.1 ± 1.58 µM; IC50 [24]: 3.21 ± 1 µM; MTD (Maximum Tolerated Dose) [25]: 4.8 mg/kg; IC50 [26]: 31.1 ± 2.97 µM; IC50 [27]: 6.33 ± 1.79 µM; IC50 [28]: 19.2 ± 1.35 µM; IC50 [29]: 4.45 ± 0.98 µM; IC50 [30]: 9.65 ± 2.13 µM; R.F. (Resistant factor) ([31]; IC50 resistant/parent line: U-2 OS Pt / U-2 OS): 2.5; IC50 [31]: 14.6 ± 1.3 µM; IC50 [32]: 20.9 ± 2.33 µM |
| F[P-](F)(F)(F)(F)F.OC[P+](CO)(CO)[Cu-3]([P+](CO)(CO)CO)([P+](CO)(CO)CO)[P+](CO)(CO)CO [CP, [Cu(thp)4][PF6]] | 1.43 ± 0.74 | 0.86 ± 0.75 | did not induce any adverse effects | 1.55 ± 0.73 | 1.87 ± 0.59 | 1.66 ± 0.94 | 0.88 ± 0.43 | 1.13 ± 0.74 | 0.46 ± 0.07 | 0.65 ± 0.87 | 2.45 ± 0.97 | 0.65 ± 0.03 | 1.19 ± 0.72 | 0.66 ± 0.12 | 1.89 ± 0.99 | 3.1 ± 1.1 | 2.1 ± 1.2 | 1.2 | 2.11 ± 1.23 | 0.24 ± 0.04 | Average tumor weight (mean ± S.D.) ([3]; 30 mg/kg i.p. daily from day 7): 0.088 ± 0.03 g; Inhibition of tumor growth ([3]; 30 mg/kg i.p. daily from day 7): 82.37%; Average tumor weight (mean ± S.D.) ([3]; 50 mg/kg i.p. daily from day 7): 0.071 ± 0.02 g; Inhibition of tumor growth ([3]; 50 mg/kg i.p. daily from day 7): 85.85%; Average tumor weight (mean ± S.D.) [20, 34]: 0.024 ± 0.03 g; Inhibition of tumor growth [20, 34]: 94.44%; tumor regression (in words) ([20]; 50 mg/kg loading then 30 mg/kg maintenance, after the sixth administration): quite complete tumor regression; IC50 [21]: 3.26 ± 1.57 µM; IC50 [22]: 0.87 ± 0.51 µM; IC50 [23]: 0.94 ± 0.75 µM; IC50 [24]: 1.08 ± 0.66 µM; MTD (Maximum Tolerated Dose) [25]: 25.6 mg/kg; IC50 [26]: 3.16 ± 1.45 µM; IC50 [27]: 1.14 ± 0.78 µM; IC50 [28]: 33 ± 1.76 µM; IC50 [29]: 0.72 ± 0.18 µM; IC50 [30]: 0.91 ± 0.45 µM; IC50 [31]: 4.3 ± 1.1 µM; IC50 [32]: 31.1 ± 3.48 µM |
